Where two headings read alike, the source gives them in different places. Where a SMILES comes first, the peptide text is derived from it. Where no end group is shown, it is not given here. [ ]: non-standard residue; d: D form. The star is where a group is joined. Hexanoyl = CCCCCC(=O)*; Aib = CC(C)(N)C(=O)O

The target in series [1] is T1, rat VPAC2 receptor (Rattus norvegicus, UniProt P35000).
T1 sequence (P35000 23-437): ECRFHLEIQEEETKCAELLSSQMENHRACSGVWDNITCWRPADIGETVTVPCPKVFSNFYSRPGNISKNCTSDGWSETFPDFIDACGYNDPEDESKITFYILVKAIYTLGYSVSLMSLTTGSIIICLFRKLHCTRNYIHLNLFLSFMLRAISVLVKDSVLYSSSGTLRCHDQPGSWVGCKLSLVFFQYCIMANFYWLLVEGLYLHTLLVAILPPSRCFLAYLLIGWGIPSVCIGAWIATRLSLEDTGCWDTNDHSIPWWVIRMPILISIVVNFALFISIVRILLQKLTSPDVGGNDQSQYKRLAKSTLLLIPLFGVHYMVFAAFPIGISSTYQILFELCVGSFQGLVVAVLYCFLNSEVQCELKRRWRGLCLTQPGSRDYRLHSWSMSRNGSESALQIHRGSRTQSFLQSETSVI
In words: Competition binding on recombinant rat VPAC2 receptor expressed in CHO cells, 125I-RO 25-1553 tracer. Further details: expressed in transfected cells; host or cells: CHO cells, crude membranes. Conditions: for VPAC1/VPAC2 ratio between the IC50 values (index of selectivity): rat receptors, binding.
Description: (§2) The peptide samples are stored frozen and thawed prior to the assay. […] All peptide sample and reference compound dilutions are performed in PBS. Peptides solutions are kept in the cold room for four days. Stock solutions are stored at −80° C. New dilution curves are prepared every week.
(§3) Each assay is done in duplicate and performed on two different membrane preparations.

The target of series [2] is T1, rat VPAC2 receptor. The series is described as follows: Adenylate cyclase activation on membrane preparations expressing rat VPAC2 receptor. In kind it is biochemical. More on the design: expressed in transfected cells; host or cells: CHO cells, crude membranes. To be noted: for VPAC2 cAMP max: maximal increase in cyclic AMP production (over basal) per minute and per mg protein; for VPAC1/VPAC2 ratio of EC50: rat receptors. The protocol: (§1) All studies are performed on crude membranes prepared from three different cell cultures expressing the different recombinant receptors, using methodology that is known in the literature. Duplicate values are obtained for each assay.
The selectivity of the VPAC2 receptor peptide agonists of the present invention are tested on the rat VPAC1 and VPAC2 receptors recombinantly expressed in CHO cells. The compound of the invention were evaluated in receptor binding & adenylate cyclase activation assays.
Dose-effect curves of adenylate cyclase activation were generated using the VPAC2 receptor peptide agonists (10^−11 to 10^−6 M, two concentrations per log) of the present invention.

The target in series [3] is T1, rat VPAC2 receptor. In words: DiscoveRx in vitro potency, CHO-PO cells transiently transfected with rat VPAC 2 receptor DNA. Type of series: cell-based. More on the design: expressed in transfected cells; host or cells: CHO-PO, transient. The protocol:
Also, the cells are washed twice. […] The stimuli are present for 30 minutes. Then, the assay buffer is gently removed.

A further series in a line: in vivo. To be noted: Wistar, rat, iv.
For the next series, the target named is T2, rat VPAC1 receptor (Rattus norvegicus, UniProt P30083).
T2 sequence (P30083 31-459): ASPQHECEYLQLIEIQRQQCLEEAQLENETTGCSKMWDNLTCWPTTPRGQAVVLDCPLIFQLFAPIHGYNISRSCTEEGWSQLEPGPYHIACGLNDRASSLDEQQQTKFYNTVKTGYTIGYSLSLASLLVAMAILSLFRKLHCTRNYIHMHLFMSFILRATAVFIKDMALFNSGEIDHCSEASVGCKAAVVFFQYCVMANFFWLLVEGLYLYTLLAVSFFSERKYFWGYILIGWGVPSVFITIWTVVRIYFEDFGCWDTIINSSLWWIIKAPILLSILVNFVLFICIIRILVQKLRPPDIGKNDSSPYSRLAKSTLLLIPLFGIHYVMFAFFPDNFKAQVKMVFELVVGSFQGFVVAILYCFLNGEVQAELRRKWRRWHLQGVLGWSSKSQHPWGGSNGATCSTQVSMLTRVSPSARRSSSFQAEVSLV
In words: Competition binding on recombinant rat VPAC1 receptor expressed in CHO cells, 125I-VIP tracer. Further details: expressed in transfected cells; host or cells: CHO cells, crude membranes.

A short description of series [4]: Rat serum stability studies (remaining active peptide by DiscoveRx cAMP on CHO-VPAC2 cells). Type of series: in vitro ADME. An outline of the steps: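 EC50 from a DiscoveRx cAMP read-out on CHO-VPAC2 cells indexes how much peptide stays active after 18 h in rat serum at 37° C without aprotinin, against an aprotinin-protected 4° C aliquot.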
A further series addresses T3, rat PAC1 receptor (Rattus norvegicus, UniProt P32215).
T3 construct: expressed in transfected cells; host or cells: CHO cells, crude membranes
T3 sequence (P32215 20-523): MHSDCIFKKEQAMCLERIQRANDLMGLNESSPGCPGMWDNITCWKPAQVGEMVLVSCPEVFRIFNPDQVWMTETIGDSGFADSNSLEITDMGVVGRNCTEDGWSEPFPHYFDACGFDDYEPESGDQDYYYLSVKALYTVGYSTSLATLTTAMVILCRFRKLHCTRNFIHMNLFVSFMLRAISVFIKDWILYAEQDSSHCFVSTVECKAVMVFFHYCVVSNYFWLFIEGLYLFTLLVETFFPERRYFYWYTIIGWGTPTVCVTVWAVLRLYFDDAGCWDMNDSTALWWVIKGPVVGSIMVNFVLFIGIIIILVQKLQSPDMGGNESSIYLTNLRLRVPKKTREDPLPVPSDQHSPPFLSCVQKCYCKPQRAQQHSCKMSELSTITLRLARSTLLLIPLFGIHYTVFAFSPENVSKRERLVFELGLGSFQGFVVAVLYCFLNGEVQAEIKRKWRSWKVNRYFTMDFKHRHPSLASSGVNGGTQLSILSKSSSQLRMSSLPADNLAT
The series is described as follows: Binding on recombinant rat PAC1 receptor expressed in CHO cells. Conditions: maximal concentration tested 10 μM peptide. The protocol: as §1

The mark [5] stands for this setting: IC50 of tracer inhibition, 125I-RO 25-1553, with standard error, read-out: RAT VPAC2 IC50 (log M) (converted).
The mark [6] stands for this setting: adenylate cyclase activation, rat VPAC2 membranes, with standard error, read-out: VPAC2 EC50 (log M) (converted).
The mark [7] stands for this setting: IC50 of tracer inhibition, 125I-VIP, with standard error, read-out: RAT VPAC1 IC50 (log M) (converted).

Description for in vivo: An IVGTT with glucose is given immediately after T=0 to 6 animals per condition. Samples are taken at 0, 2, 4, 6, and 10 minutes after injection.
For cell handling, Plate 50,000 cells/well and keep in culture over night. Wash cell twice in PBS and add 50 μl/well stimulation medium consisting of PBS+1.2 MgCl2, 1.3 CaCl2, 2 glucose and 0.5 IBMX. Incubate 15 minutes and add 50 μl/well of the plasma samples (see layout below). Incubate 30 minutes, remove the supernatant and proceed as normal with the DiscoveRx assay. Prepare plates in duplicate. Protease and peptidase inhibitor are present in all plasma samples.
Description for rat VPAC1 receptor: as §2, §3

The IC50 is the point on the concentration scale where inhibition reaches its midpoint. The term EC50 denotes the midpoint of the concentration-response curve. One may read the AUC(0-t) as exposure summed from dosing to a finite time, without extrapolation to infinity. Broadly, the Cmax is the maximum level reached in the sampled fluid or tissue. Usually half-life stands for how long it takes for the measured level to halve. Low readings indicate rapid decline, high ones slow decline. For `CCCCCC(=O)N[C@@H](Cc1c[nH]cn1)C(=O)N[C@@H](CO)C(=O)N[C@@H](CC(=O)O)C(=O)N[C@@H](C)C(=O)N[C@H](C(=O)N[C@@H](Cc1ccccc1)C(=O)N[C@H](C(=O)N[C@@H](CC(=O)O)C(=O)N[C@@H](CC(N)=O)C(=O)N[C@@H](Cc1ccc(O)cc1)C(=O)N[C@H](C(=O)N[C@@H](CCCNC(=N)N)C(=O)N[C@@H](CC(C)C)C(=O)N[C@@H](CCCNC(=N)N)C(=O)NC(C)(C)C(=O)N[C@@H](CCC(N)=O)C(=O)N[C@@H](CC(C)C)C(=O)N[C@@H](C)C(=O)N[C@@H](C)C(=O)NC(C)(C)C(=O)N[C@@H](CCCCN)C(=O)N[C@@H](Cc1ccc(O)cc1)C(=O)N[C@@H](CC(C)C)C(=O)N[C@@H](CCC(N)=O)C(=O)N[C@@H](CO)C(=O)N[C@H](C(=O)N[C@@H](CCCCN)C(=O)N[C@@H](CC(N)=O)C(=O)N[C@@H](CCCCN)C(=O)NCC(=O)NCC(=O)N1CCC[C@H]1C(=O)N[C@@H](CO)C(=O)N[C@@H](CO)C(=O)NCC(=O)N[C@@H](C)C(=O)N1CCC[C@H]1C(=O)N1CCC[C@H]1C(=O)N1CCC[C@H]1C(=O)N[C@@H](CO)C(=O)O)[C@@H](C)CC)[C@@H](C)O)[C@@H](C)O)C(C)C` [Agonist P292] (Hexanoyl-HSDAVFTDNYTRLR[Aib]QLAA[Aib]KYLQSIKNKGGPSSGAPPPS-OH; C-terminus assumed), the IC50 is 0.759 nM at rat VPAC2 receptor [1] (setting [5]) and 204 nM at rat VPAC1 receptor (setting [7]). For the same compound, at rat VPAC2 receptor [1], the “VPAC1/VPAC2 ratio between the IC50 values (index of selectivity)” value amounted to 269. Also, the EC50 at rat VPAC2 receptor [2] (setting [6]) is 0.115 nM; at rat VPAC2 receptor [3], 0.07 nM. At rat VPAC2 receptor [2], the “VPAC2 cAMP max” value amounted to 79.1. In addition, on rat VPAC2 receptor [2] (adenylate cyclase activation), the “VPAC1/VPAC2 ratio of EC50” value worked out at 100. In addition, the figures for the AUC(0-t) in “in vivo” (0.5 ug/kg) and in the series “in vivo” (10 ug/kg) were 0.0167 nM·h and 0.688 nM·h, respectively. Moreover, the results for the maximum concentration (Cmax) in the series “in vivo” (0.5 ug/kg) and in “in vivo” (10 ug/kg) were 0.12 nM and 5.37 nM, respectively. Further, the values for the half-life in the series “in vivo” (0.5 ug/kg) and in the series “in vivo” (10 ug/kg) were 15 min and 5.5 min, respectively. The “Rat Serum Stability (estimated purity in % after 18 hours)” value in series [4] is 33.43%.

In the case of “H-MHSDAVFTDNYTRLRKQVAAKKYLQSIKNKRYGGPSSGAPPPS [Agonist P104]”, on rat VPAC2 receptor [1], the IC50 is 1.8 nM and the “VPAC1/VPAC2 ratio between the IC50 values (index of selectivity)” value was found to be 977. In addition, at rat VPAC2 receptor [2], the response was half-maximal at 1.01 nM (EC50) and the “VPAC2 cAMP max” value was 129 ± 19. At rat VPAC2 receptor [2] (adenylate cyclase activation), the “VPAC1/VPAC2 ratio of EC50” value is listed as 184. The “binding (tracer displacement)” value on rat PAC1 receptor was “incomplete tracer displacement”. In addition, the IC50 at rat VPAC1 receptor is 1760 nM. In series [4] (10 μM peptide in rat serum, 37° C., 18 hours, versus 4° C. aliquot with aprotinin), the “Rat Serum Stability (estimated purity in % after 18 hours)” value is recorded as 1.01%.

Take “Hexanoyl-HSDAVFTDNYTRLLAKLALQKYLQSIKNKRYGGPSSGAPPPS [Agonist P119]”: the figures for the IC50 at rat VPAC2 receptor [1] (setting [5]) and on rat VPAC1 receptor (setting [7]) were 0.618 nM and 29.2 nM, respectively. Besides, on rat VPAC2 receptor [1], the “VPAC1/VPAC2 ratio between the IC50 values (index of selectivity)” value worked out at 47. Also, the EC50 on rat VPAC2 receptor [2] (setting [6]) was 0.0912 nM. Also, the “VPAC2 cAMP max” value on rat VPAC2 receptor [2] turned out to be 133 ± 18. The “VPAC1/VPAC2 ratio of EC50” value at rat VPAC2 receptor [2] (adenylate cyclase activation) came to 32. The “binding (tracer displacement)” value on rat PAC1 receptor was “incomplete tracer displacement”.

Turning to “Hexanoyl-HSDAVFTDNYTRLRKQVAAKKYLQSIKNKRYGGPSSGAPPPS [Agonist P31]”, at rat VPAC2 receptor [1] (setting [5]), the IC50 is 0.385 nM. Besides, the “VPAC1/VPAC2 ratio between the IC50 values (index of selectivity)” value on rat VPAC2 receptor [1] is recorded as 546. Besides, the EC50 on rat VPAC2 receptor [2] (setting [6]) is 0.145 nM. Also, on rat VPAC2 receptor [2], the “VPAC2 cAMP max” value amounted to 134 ± 12. For the same compound, the “VPAC1/VPAC2 ratio of EC50” value at rat VPAC2 receptor [2] (adenylate cyclase activation) came to 174. In addition, the “binding (tracer displacement)” value at rat PAC1 receptor is on record as “incomplete tracer displacement”. Moreover, in “in vivo” (10 ug/kg), the AUC(0-t) is 0.308 nM·h, the Cmax was found to be 4.37 nM and the half-life is 12 min. Moreover, the half-maximal inhibitory concentration (IC50) on rat VPAC1 receptor (setting [7]) was 210 nM.

The compound “Hexanoyl-HSDAVFTDNYTRLR[Aib]QVAAK[Aib]YLQSIKNKRYGGPSSGAPPPS [Agonist P264]” showed an EC50 on rat VPAC2 receptor [3] of 0.1 nM. In the series “in vivo” (10 ug/kg), the AUC(0-t) is 0.06 nM·h, the highest level (Cmax) was 0.96 nM and the half-life worked out at 1.3 min. In series [4], the “Rat Serum Stability (Estimated purity in % after 72 hours)” value is 0.9% and the “Rat Serum Stability (estimated purity in % after 18 hours)” value was 19.22%.

Turning to “Hexanoyl-HSDAVFTDNYTRLR[Aib]QVAA[Aib]KYLQSIKNKRYGGPSSGAPPPS [Agonist P261]”, the IC50 at rat VPAC2 receptor [1] (setting [5]) is 0.355 nM. For the same compound, at rat VPAC2 receptor [1], the “VPAC1/VPAC2 ratio between the IC50 values (index of selectivity)” value is given as 363. The EC50 on rat VPAC2 receptor [2] (setting [6]) is 0.0631 nM. Further, the “VPAC2 cAMP max” value at rat VPAC2 receptor [2] worked out at 78.5. In addition, at rat VPAC2 receptor [2] (adenylate cyclase activation), the “VPAC1/VPAC2 ratio of EC50” value stood at 200. The same compound displayed an EC50 on rat VPAC2 receptor [3] of 0.04 nM. In the series “in vivo” (10 ug/kg), this compound had an AUC(0-t) of 0.898 nM·h, a Cmax of 12.1 nM and a half-life of 3.2 min. The IC50 at rat VPAC1 receptor (setting [7]) is 129 nM. Further, the “Rat Serum Stability (estimated purity in % after 18 hours)” value in series [4] is given as 27.06%.

Source of the values: patent US20080026996A1, “Selective Vpac2 Receptor Reptide Agonists” (ELI LILLY AND COMPANY, priority 2004, published 2008).
